Results as given in patent US20030013660A1, “Dioxolane analogs for improved inter-cellular delivery” (Shire BioChem Inc., priority 2000, published 2003).

Key:
Test in all cases: 3H-TdR incorporation at 72 hr (24 hr drug exposure, wash, 48 hr)
[1] = system: H-460; assay type: cell-based, Human; conditions: Homo sapiens, NCI-H460, read-out: IC50 in μM (3H-TdR incorporation at 72 hr) H-460 24 h, H-460 Human Lung Carcinoma, 72 hr assay
Description: (§1) Exposition of 24 hr to drug, wash, incubated for another 48 hr (total of 72 hr assay)
(§2) (3H-Thymidine Incorporation Assay)

[2] = system: MCF-7; assay type: cell-based, Human; conditions: Homo sapiens, MCF7, read-out: IC50 in μM (3H-TdR incorporation at 72 hr) MCF-7 24 h, MCF-7 Human Breast Carcinoma, 72 hr assay
Description: as §1, §2

[3] = system: SF-268; assay type: cell-based, Human; conditions: Homo sapiens, SF-268, read-out: IC50 in μM (3H-TdR incorporation at 72 hr) SF-268 24 h, SF-268 Human Central Nervous System Tumor; 24 h drug exposure, 72 hr assay
Description: as §1, §2

[4] = system: CCRF-CEM; assay type: cell-based; conditions: Homo sapiens, CCRF-CEM, read-out: IC50 in μM (3H-TdR incorporation at 72 hr) CCRF-CEM 24 h, CCRF-CEM T-cell Leukemia, 72 hr assay
Description: as §1, §2

[5] = system: CEM/dCK-; assay type: cell-based; conditions: for IC50: Homo sapiens, CCRF-CEM, read-out: IC50 in μM (3H-TdR incorporation at 72 hr) CEM/dCK- 24 h, CCRF-CEM deoxycytidine kinase-deficient, 24 h drug exposure, 72 hr assay; for Factor* (Resistance Factor = Ratio of dCK- on Wild-type CCRF-CEM): ratio of IC50 CEM/dCK- to IC50 CCRF-CEM
Description: as §1, §2

Row | Structure (SMILES) | IC50 [1] [µM] | IC50 [2] [µM] | IC50 [3] [µM] | IC50 [4] [µM] | IC50 [5] [µM] | Factor* (Resistance Factor = Ratio of dCK- on Wild-type CCRF-CEM) [5]
1 | C/C(=N\c1ccn([C@@H]2CO[C@H](CO)O2)c(=O)n1)N(C)C [Compound 228, N′-[1-(2-HYDROXYMETHYL- [1,3]DIOXOLAN-4-YL)-2- OXO-1,2-DIHYDRO- PYRIMIDIN-4-YL]-N,N- DIMETHYL-ACETAMIDINE] | 0.68 | 1.5 | 5.3 | 0.44 | > 100 | >227
2 | Cc1ccc(C)c(OCCCC(C)(C)C(=O)Nc2ccn([C@@H]3CO[C@H](CO)O3)c(=O)n2)c1 [Compound 234, 5-(2,5-DIMETHYL- PHENOXY)-2,2-DIMETHYL- PENTANOIC ACID [1-(2- HYDROXYMETHYL- [1,3]DIOXOLAN-4-YL)-2- OXO-1,2-DIHYDRO- PYRIMIDIN-4-YL]-AMIDE] | 1.5 | 0.1 | 0.1 | 0.95 | > 100 | >105
3 | CCCCC[C@H]1CC[C@H](C(=O)OC[C@H]2OC[C@@H](n3ccc(N)nc3=O)O2)CC1 [Compound 240, 4-PENTYL- CYCLOHEXANECARBOXYLIC ACID 4-(4-AMINO-2-OXO- 2H-PYRIMIDIN-1-YL)- [1,3]DIOXOLAN-2-YL METHYL ESTER] | ≤ 0.0001 | ≤ 0.0001 | ≤ 0.0001 | ≤ 0.0001 | 2.5 | ≧25000
4 | O=C(Nc1ccn([C@@H]2CO[C@H](CO)O2)c(=O)n1)C(c1ccccc1)c1ccccc1 [Compound 241, N-[1-(2-HYDROXYMETHYL- [1,3]DIOXOLAN-4-YL)-2- OXO-1,2-DIHYDRO- PYRIMIDIN-4-YL]-2,2- DIPHENYL-ACETAMIDE] | 0.047 | 0.17 | 14 | 1.4 | ≥ 100 | ≧74

Now from value to compound, other results behind:

Row | IC50 [1] [µM] | IC50 [2] [µM] | IC50 [3] [µM] | IC50 [4] [µM] | IC50 [5] [µM] | Structure (SMILES) | Factor* (Resistance Factor = Ratio of dCK- on Wild-type CCRF-CEM) [5]
5 | 1.5 | 3.8 | 9.5 | 1 | > 100 | CC(C)N(/C=N/c1ccn([C@@H]2CO[C@H](CO)O2)c(=O)n1)C(C)C [Compound 230, N′-[1-(2-HYDROXYMETHYL- [1,3]DIOXOLAN-4-YL)-2- OXO-1,2-DIHYDRO- PYRIMIDIN-4-YL]-N,N- DIISOPROPYL-FORMAMIDINE] | >100
6 | 1.6 | 1.1 | 0.38 | 1.2 | 61 | C[C@H]1CC[C@@](C)(C(=O)Nc2ccn([C@@H]3CO[C@H](CO)O3)c(=O)n2)C1(C)C [Compound 235, 1,2,2,3-TETRAMETHYL- CYCLOPENTANECARBOXYLIC ACID [1-(2- HYDROXYMETHYL- [1,3]DIOXOLAN-4-YL)-2- OXO-1,2-DIHYDRO- PYRIMIDIN-4-YL]-AMIDE] | 51
7 | 0.00045 | ≤ 0.0001 | 0.025 | 0.0025 | 59 | CC(C)(CCCCCCc1ccccc1)C(=O)OC[C@H]1OC[C@@H](n2ccc(N)nc2=O)O1 [Compound 238, 2,2-DIMETHYL-8-PHENYL- OCTANOIC ACID 4-(4- AMINO-2-OXO-2H- PYRIMIDIN-1-YL)- [1,3]DIOXOLAN-2-YL METHYL ESTER] | 23,600
8 | 0.25 | 0.001 | 1.1 | 0.23 | 93 | CC(C)Cc1ccc([C@H](C)C(=O)Nc2ccn([C@@H]3CO[C@H](CO)O3)c(=O)n2)cc1 [Compound 242, N-[1-(2-HYDROXYMETHYL- [1,3]DIOXOLAN-4-YL)-2- OXO-1,2-DIHYDRO- PYRIMIDIN-4-YL]-2-(4- ISOBUTYL-PHENYL)- PROPIONAMIDE] | 404
